Laboratory results published in PMC10159843, “Babesia duncani multi-omics identifies virulence factors and drug targets” (Nature Microbiology, 2023).

Test system: BdATVR parasites
Assay type: cell-based, Babesia duncani
Conditions: IC50 BdATVR versus WA1

O=C1C(O)=C([C@H]2CC[C@H](c3ccc(Cl)cc3)CC2)C(=O)c2ccccc21 [Atovaquone]
fold resistance of BdATVR compared with WA1: 15.2 fold
